Experimental data: patent publication US20050209157A1, “Short bioactive peptides and methods for their use” (priority 2001, published 2005)
Values after ≈ are worked out from the molar mass of the structure shown. No end group written: not given here.

Key:
in vitro = conditions: human, WI38 normal lung fibroblast cells
[1] = system: human leukocyte (WBC) cells; experiment: Stimulation and proliferation of leukocytes, Alamar Blue; assay type: cell-based; conditions: 48 hours
Protocol: In vitro viability of human leukocyte cells in the presence of different peptides at different concentrations was determined by an Alamar Blue protocol. Alamar Blue (Promega, Madison, Wis.) is an indicator dye, formulated to measure quantitatively the proliferation and cytotoxicity of the cells. The dye consists of an oxidation-reduction (redox) indicator that yields a calorimetric change and a fluorescent signal in response to cellular metabolic activity.
Assay protocol: Blood from a human was drawn and centrifuged at 1500 rpm for 15 minutes at room temperature. The buffy coat cells at the plasma-red blood cell interface were aspirated. Buffy coat cells (mainly lymphocyte cells) were then transferred into 15 ml centrifuge tubes containing 5 ml of RPMI-1640 medium+10% Fetal Bovine Serum (Gibco, Grand Island, N.Y.). Additional medium was added to the tubes to bring the volume up to 10 ml. The buffy coat suspension was then carefully layered on 5 ml of Histopaque (Sigma Chemical Co., St. Louis, Mo.) and centrifuged at 1500 rpm for 30 minutes at room temperature. The interface which is mostly PBMCs (peripheral mononuclear cells) was aspirated and transferred to a 15 ml conical centrifuge tube and, resuspended in 2 ml cold RPMI-1640 and brought up to 15 ml with cold RPMI-1640 medium. Cells were centrifuged at 1500 rpm for 10 minutes. The supernatant was then aspirated and discarded. The cell pellet was re-suspended in 1 ml of cold RPMI 1640 and brought up to 15 ml with RPMI medium. This step was repeated twice, except that in the last step, the cells were resuspended with 1 ml of cold RPMI-1640 medium and cell counts were performed with a hemocytometer according to the Sigma cell culture catalogue.
Pokewood mitogen was used as a control along with positive and negative controls. Negative control cells were killed with 70% methanol. Positive (+) control cells were incubated in RPMI medium (untreated). […] of AlamarBlue was added to the cells, and readings were taken after 24 hours, 48 hours, 72 hours, and 96 hours using a fluorimeter (excitation 544/transmission 590 nm).
Calculations were performed using the following formula. The peptide treated sample and positive control were adjusted for negative control. [formula]
Using the protocol described immediately above, about 100-150 peptides were screened for their stimulatory and/or inhibitory actions upon the growth of human leukocyte (“WBC”) cells as compared to the growth of untreated positive control cells.
The Alamar Blue stain used in the protocol permeates both cell and nuclear membranes, and is metabolized in the mitochondria to cause the change in color. The resulting fluorometric response is therefore a result of total mitochondrial activity caused by cell stimulation and/or mitosis (cell proliferation).

[2] = system: human red blood cells (RBC); experiment: in vitro; assay type: cell-based; conditions: human red blood cells
[3] = Peptide toxicity WI-38 LD/50, human fibroblast cells

Molecule | CC50 at 24 h (in vitro; [3]) | Peptide treated cell activity Percent stimulation relative to control ([1]; 0.1 ug/ml) | Peptide treated cell activity Percent stimulation relative to control ([1]; 1 ug/ml) | Peptide treated cell activity Percent stimulation relative to control ([1]; 10 ug/ml) | Peptide treated cell activity Percent stimulation relative to control ([1]; 100 ug/ml) | Peptide treated cell activity Percent stimulation relative to control ([1]; 500 ug/ml) | Peptide toxicity RBC LD/50 [2] | CC50 at 24 h (in vitro)
CC(C)C[C@H](NC(=O)[C@H](C)NC(=O)[C@H](CC(C)C)NC(=O)[C@H](CCCCN)NC(=O)[C@H](C)NC(=O)[C@H](CC(C)C)NC(=O)[C@H](CCCCN)NC(=O)[C@H](CCCCN)NC(=O)[C@H](C)NC(=O)[C@H](CC(C)C)NC(=O)[C@H](CCCCN)NC(=O)[C@H](C)NC(=O)[C@H](CC(C)C)NC(=O)[C@H](CCCCN)NC(=O)[C@H](CCCCN)NC(=O)[C@H](C)NC(=O)[C@@H](N)Cc1ccccc1)C(N)=O [compound 17] | 8 µg/mL (≈ 4.31 µM) | 82% | 76% | 61% | 18% | 16% | 200 | 
FAKALAKLAKKLL-NH2 [compound 58] | 25 µg/mL | 112% | 112% | 98% | 35% | 26% | 300 | 
FAKKFAKKFKKFAKKFAKFAFAF-NH2 [compound 147] |  | 100% | 94% | 83% | 22% | 20% | 10 | 66 µg/mL
FAKKLAKLAKKLLAL-NH2 [compound 20] | 12 µg/mL | 79% | 82% | 78% | 37% | 36% | 350 | 
FAKLLAKALKKAL-NH2 [compound 66] | 210 µg/mL | 100% | 102% | 97% | 37% | 17% | 500 | 
FAKLLAKLAKAKA-NH2 [compound 61] | > 1000 µg/mL | 110% | 115% | 116% | 124% | 114% | >1000 | 
FAKLLAKLAKKLL-NH2 [compound 25] | 5 µg/mL | 78% | 82% | 71% | 14% | 12% | 20 | 
FALALKALKKLAKKLKKLAKKAL-NH2 [compound 10] | 24 µg/mL | 117% | 104% | 99% | 27% | 27% | 60 | 
FALALKALKKLKKALKKAL-NH2 [compound 12] | 37 µg/mL | 108% | 110% | 99% | 30% | 23% | 125 | 
FALKALKKLKKALKKAL-NH2 [compound 115] | 130 µg/mL | 93% | 92% | 37% | 72% | 29% | 780 | 
FAVGLRAIKRALKKLRRGVRKVAKDL-NH2 [compound 119] | 500 µg/mL | 88% | 108% | 54% | 117% | 89% | 850 | 
LPKWKVFKKIEKVGRNIRNGIVKAGPAIAVLGEAKALG-NH2 [compound 150] | 320 µg/mL | 97% | 101% | 94% | 109% | 112% | >1000 | 
MPKEKVFLKIEKMGRNIRN-NH2 [compound 71] | > 1000 µg/mL | 101% | 100% | 108% | 109% | 110% | >1000 | 
MPKWKVFKKIEKVGRNIRNGIVKAGPAIAVLGEAKALG-NH2 [compound 5] | 950 µg/mL | 111% | 115% | 118% | 116% | 101% | >1000 | 
VAKLLAKLAKKLL-NH2 [compound 30] | 60 µg/mL | 74% | 68% | 62% | 13% | 13% | 130 | 
